Results taken from US20110086834A1, “ALKYNYL ALCOHOLS AS KINASE INHIBITORS” (AMGEN INC., priority 2008, published 2011).

These compounds were tested against T1, NIK (Homo sapiens, UniProt Q99558) (assay: homogenous time resolved fluorescence (HTRF) assay for NIK Ki measurement). Details: not given.
T1 construct: Both assays utilize a truncated form of NIK containing only the catalytic domain; made in house; host or cells: baculovirus expression system (insect cells implied)
Assay type: biochemical

T1 sequence (Q99558 400-655 limits assumed): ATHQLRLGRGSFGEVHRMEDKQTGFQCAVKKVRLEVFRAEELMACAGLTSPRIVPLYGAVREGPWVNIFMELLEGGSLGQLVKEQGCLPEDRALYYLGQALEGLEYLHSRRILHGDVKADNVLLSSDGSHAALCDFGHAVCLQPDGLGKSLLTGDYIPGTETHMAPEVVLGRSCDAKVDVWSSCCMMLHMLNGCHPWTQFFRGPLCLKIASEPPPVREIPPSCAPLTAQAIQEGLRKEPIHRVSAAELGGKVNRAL

With `Cc1cnc(C(C)(O)C#Cc2ccc3c(c2)N(c2ccnc(N)n2)CC3)o1` (stereo not drawn) [Example 316, 4-(1-(2-Amino-4-pyrimidinyl)-2,3-dihydro-1H-indol-6-yl)-2-(5-methyl-1,3-oxazol-2-yl)-3-Butyn-2-ol] the Ki was under 1000 nM.

Same assay, conditions: truncated NIK (catalytic domain only), autophosphorylation; 10 nM enzyme; 20, 100, 200 or 500 μM ATP; room temperature, 2 hours; read-out: Ki activity in the homogenous time resolved fluorescence (HTRF) assay for NIK

Compared with `C[C@](O)(C#Cc1ccc2c(c1)N(c1nc(N)ncc1Cl)CC21CCOC1)c1nccs1` (single isomer, unassigned) [Example 201, (2S)-4-((3S*)-1′-(2-Amino-5-chloro-4-pyrimidinyl)-1′,2′,4,5-tetrahydrospiro[furan-3,3′-indol]-6′-yl)-2-(1,3-thiazol-2-yl)-3-butyn-2-ol], `C[C@@](O)(C#Cc1ccc2c(c1)N(c1nc(N)ncc1Cl)C[C@]21CCOC1)c1nccs1` (stereo in doubt) [Example 202, (2R)-4-((3S*)-1′-(2-Amino-5-chloro-4-pyrimidinyl)-1′,2′,4,5-tetrahydrospiro[furan-3,3′-indol]-6′-yl)-2-(1,3-thiazol-2-yl)-3-butyn-2-ol] is lower in Ki: 1000 to 30000 nM for the first, under 1000 nM for the second.

`CC(O)(C#Cc1ccc2c(c1)N(c1nc(N)ncc1Cl)CC2)c1ncc(C#N)s1` (stereo not drawn) [Example 34, 2-(4-(1-(2-amino-5-chloropyrimidin-4-yl)indolin-6-yl)-2-hydroxybut-3-yn-2-yl)thiazole-5-carbonitrile] and `CC(O)(C#Cc1ccc2c(c1)N(c1nc(N)ncc1Cl)CC2)c1ncc(CO)s1` (stereo not drawn) [Example 8, 4-(1-(2-amino-5-chloropyrimidin-4-yl)indolin-6-yl)-2-(5-(hydroxymethyl)thiazol-2-yl)but-3-yn-2-ol] cannot be ordered by Ki: under 1000 nM for the first, under 1000 nM for the second.

`Nc1nccc(N2CCc3ccc(C#CC4(O)CCSC4)cc32)n1` (stereo not drawn) [Example 264, 3-((1-(2-amino-4-pyrimidinyl)-2,3-dihydro-tH-indol-6-yl)ethynyl)tetrahydro-3-thiopheneol] and `C[C@@](O)(C#Cc1ccc2c(c1)N(c1ccnc(N)n1)CC2)c1nccs1` [Example 294, (2R)-4-(1-(2-amino-4-pyrimidinyl)-2,3-dihydro-1H-indol-6-yl)-2-(1,3-thiazol-2-yl)-3-Butyn-2-ol] cannot be ordered by Ki: under 1000 nM for the first, under 1000 nM for the second.

`Cc1ccnc(C(C)(O)C#Cc2ccc3c(c2)N(c2nc(N)ncc2Cl)CC3)c1` (stereo not drawn) [Example 5, 4-(1-(2-amino-5-chloropyrimidin-4-yl)indolin-6-yl)-2-(4-methylpyridin-2-yl)but-3-yn-2-ol] and `CC(O)(C#Cc1ccc2c(c1)N(c1nc(N)ncc1Cl)CC2)c1cnccn1` (stereo not drawn) [Example 4, 4-(1-(2-amino-5-chloropyrimidin-4-yl)indolin-6-yl)-2-(pyrazin-2-yl)but-3-yn-2-ol] cannot be ordered by Ki: under 1000 nM for the first, under 1000 nM for the second.

`CC(O)(C#Cc1ccc2c(c1)N(c1ccnc(N)n1)CC2)c1ccn[nH]1` (stereo not drawn) [Example 77, 4-(1-(2-Amino-4-pyrimidinyl)-2,3-dihydro-1H-indol-6-yl)-2-(1H-pyrazol-5-yl)-3-butyn-2-ol] and `CC(O)(C#Cc1ccc2c(c1)N(c1ccnc(N)n1)CC2)c1cccnc1` (stereo not drawn) [Example 290, 4-(1-(2-Amino-4-pyrimidinyl)-2,3-dihydro-1H-indol-6-yl)-2-(3-pyridinyl)-3-butyn-2-ol] cannot be ordered by Ki: under 1000 nM for the first, under 1000 nM for the second.

`C[C@@](O)(C#Cc1ccc2c(c1)N(c1nc(N)ncc1Cl)CC21CN(CCS(C)(=O)=O)C1)c1nccs1` [Example 184, (R)-4-(1′-(2-amino-5-chloropyrimidin-4-yl)-1-(2-(methylsulfonyl)ethyl)spiro[azetidine-3,3′-indoline]-6′-yl)-2-(thiazol-2-yl)but-3-yn-2-ol] and `C[C@@](O)(C#Cc1ccc2c(c1)N(c1nc(N)ncc1Cl)CC21CS(=O)(=O)C1)c1nccs1` [Example 213, (2R)-4-(1-(2-Amino-5-chloro-4-pyrimidinyl)-1′,1′-dioxido-1,2-dihydrospiro[indole-3,3′-thietan]-6-yl)-2-(1,3-thiazol-2-yl)-3-butyn-2-ol] cannot be ordered by Ki: under 1000 nM for the first, under 1000 nM for the second.

`CC(O)(C#Cc1ccc2c(c1)N(c1nc(N)ncc1Cl)CC2(C)C)C(=O)N1CCCC1` (stereo not drawn) [Example 50, 4-(1-(2-amino-5-chloro-4-pyrimidinyl)-3,3-dimethyl-2,3-dihydro-1H-indol-6-yl)-2-methyl-1-oxo-1-(1-pyrrolidinyl)-3-butyn-2-ol] and `Cc1c[nH]c(C(C)(O)C#Cc2ccc3c(c2)N(c2nc(N)ncc2Cl)CC3(C)C)n1` (stereo not drawn) [Example 79, 4-(1-(2-Amino-5-chloro-4-pyrimidinyl)-3,3-dimethyl-2,3-dihydro-1H-indol-6-yl)-2-(4-methyl-1H-imidazol-2-yl)-3-butyn-2-ol] cannot be ordered by Ki: under 1000 nM for the first, under 1000 nM for the second.

`Nc1nccc(-n2ccc3c(O)cc(C#CC4(O)CCCC4)cc32)n1` [Example 99, 1-(2-aminopyrimidin-4-yl)-6-(2-(1-hydroxycyclopentyl)ethynyl)-1H-indol-4-ol] and `C[C@]1(CCO)CN(c2nc(N)ncc2Cl)c2cc(C#CC3(O)CCCC3)ccc21` (single isomer, unassigned) [Example 52, 1-(03R*)-1-(2-amino-5-chloro-4-pyrimidinyl)-3-(2-hydroxyethyl)-3-methyl-2,3-dihydro-1H-indol-6-yl)ethynyl)cyclopentanol] cannot be ordered by Ki: under 1000 nM for the first, under 1000 nM for the second.

`Nc1nc(N2CCc3ccc(C#CC4(O)CCCC4)cc32)c2nc[nH]c2n1` [Example 72, 1-((1-(2-amino-9H-purin-6-yl)-2,3-dihydro-1H-indol-6-yl)ethynyl)cyclopentanol] and `CC1(CO)CN(c2nc(N)nc3[nH]cnc23)c2cc(C#CC3(O)CCCC3)ccc21` (stereo not drawn) [Example 74, 1-((1-(2-amino-9H-purin-6-yl)-3-(hydroxymethyl)-3-methyl-2,3-dihydro-1H-indol-6-yl)ethynyl)cyclopentanol] cannot be ordered by Ki: under 1000 nM for the first, under 1000 nM for the second.

Compared with `CC(O)(C#Cc1ccc2c(c1)N(c1nc(N)ncc1Cl)CC2)c1cc(N2CCCCC2)ccn1` (stereo not drawn) [Example 10, 4-(1-(2-amino-5-chloropyrimidin-4-yl)indolin-6-yl)-2-(4-(piperidin-1-yl)pyridin-2-yl)but-3-yn-2-ol], `Cc1cnc(C(C)(O)C#Cc2ccc3c(c2)N(c2ccnc(N)n2)CC3)s1` (stereo not drawn) [Example 289, 4-(1-(2-Amino-4-pyrimidinyl)-2,3-dihydro-1H-indol-6-yl)-2-(5-methyl-1,3-thiazol-2-yl)-3-Butyn-2-ol] is lower in Ki: 1000 to 30000 nM for the first, under 1000 nM for the second.

`CC(O)(C#Cc1ccc2c(c1)N(c1nc(N)ncc1Cl)CC21CCS(=O)(=O)CC1)c1nccs1` (racemic) [Example 215, (rac)-4-(1-(2-Amino-5-chloro-4-pyrimidinyl)-1′,1′-dioxido-1,2,2′,3′,5′,6′-hexahydrospiro[indole-3,4′-thiopyran]-6-yl)-2-(1,3-thiazol-2-yl)-3-butyn-2-ol] and `Cc1cc(C(C)(O)C#Cc2ccc3c(c2)N(c2nc(N)ncc2Cl)CC32CCS(=O)(=O)CC2)no1` (racemic) [Example 216, (rac)-4-(1-(2-Amino-5-chloro-4-pyrimidinyl)-1′,1′-dioxido-1,2,2′,3′,5′,6′-hexahydrospiro[indole-3,4′-thiopyran]-6-yl)-2-(5-methyl-3-isoxazolyl)-3-butyn-2-ol] cannot be ordered by Ki: under 1000 nM for the first, under 1000 nM for the second.

`CC(O)(C#Cc1ccc2c(c1)N(c1nc(N)ncc1Cl)CC2(C)C)c1nccs1` (racemic) [Example 39, 4-(1-(2-amino-5-chloro-4-pyrimidinyl)-3,3-dimethyl-2,3-dihydro-1H-indol-6-yl)-2-(1,3-thiazol-2-yl)-3-Butyn-2-ol] and `CC(O)(C#Cc1ccc2c(c1)N(c1ncncc1Cl)CC2(C)C)c1nccs1` (stereo not drawn) [Example 312, 4-(1-(5-chloro-4-pyrimidinyl)-3,3-dimethyl-2,3-dihydro-1H-indol-6-yl)-2-(1,3-thiazol-2-yl)-3-butyn-2-ol] cannot be ordered by Ki: under 1000 nM for the first, under 1000 nM for the second.

`Nc1ncc(Cl)c(-c2cn(CCOCCOCCO)c3ccc(C#CC4(O)CCCC4)cc23)n1` [Example 130] and `Nc1ncc2c(n1)-c1c([nH]c3ccc(C#CC4(O)CCCCC4)cc13)CCC2` [Example 239, 1-((2-Amino-5,6,7,8-tetrahydropyrimido[4′,′:3,4]cyclohepta[1,2-b]indol-11-yl)ethynyl)cyclohexanol] cannot be ordered by Ki: under 1000 nM for the first, under 1000 nM for the second.

`Cc1ccc(C#CC(C)(O)c2nccs2)cc1Nc1ccc(C#N)cn1` (stereo not drawn) [Example 170, 6-(5-(3-Hydroxy-3-(thiazol-2-yl)but-1-ynyl)-2-methylphenylamino)nicotinonitrile] and `CC(O)(C#Cc1ccc(O[C@H]2CCOC2)c(Nc2ccncc2)c1)c1nccs1` (stereo partly drawn) [Example 169] fall in the same range of Ki: 1000 to 30000 nM for the first, 1000 to 30000 nM for the second.

`CC(O)(C#Cc1ccc(CN2CCOCC2)c(Nc2nc(N)ncc2Cl)c1)c1nccs1` (stereo not drawn) [Example 157, 4-(3-(2-Amino-5-chloropyrimidin-4-ylamino)-4-(morpholinomethyl)phenyl)-2-(thiazol-2-yl)but-3-yn-2-ol] and `CC(O)(C#Cc1ccc(O[C@@H]2CCOC2)c(Nc2nc(N)ncc2Cl)c1)c1nccs1` (stereo partly drawn) [Example 159] cannot be ordered by Ki: under 1000 nM for the first, under 1000 nM for the second.

`CC(O)(C#Cc1ccc2ncc(-c3ccnc(N)n3)n2c1)c1nccs1` (stereo not drawn) [Example 292, 4-(3-(2-Amino-4-pyrimidinyl)imidazo[1,2-a]pyridin-6-yl)-2-(1,3-thiazol-2-yl)-3-butyn-2-ol] and `CC(O)(C#Cc1ccc2c(c1)N(c1nc(N)ncc1Cl)CC2(CO)CO)c1nccs1` (stereo not drawn) [Example 60, 4-(1-(2-amino-5-chloro-4-pyrimidinyl)-3,3-bis(hydroxymethyl)-2,3-dihydro-1H-indol-6-yl)-2-(1,3-thiazol-2-yl)-3-butyn-2-ol] cannot be ordered by Ki: under 1000 nM for the first, under 1000 nM for the second.

Compared with `Cc1cc([C@@](C)(O)C#Cc2ccc(F)c(Nc3nc(N)ncc3Cl)c2)no1` [Example 177, (S)-4-(3-(2-amino-5-chloropyrimidin-4-ylamino)-4-fluorophenyl)-2-(5-methylisoxazol-3-yl)but-3-yn-2-ol], `CN1CCC2(CC1)CN(c1nc(N)ncc1Cl)c1cc(C#CC3(O)CCCC3)ccc12` [Example 185, 1-((1-(2-Amino-5-chloro-4-pyrimidinyl)-1′-methyl-1,2-dihydrospiro[indole-3,4′-piperidin]-6-yl)ethynyl)cyclopentanol] is lower in Ki: 1000 to 30000 nM for the first, under 1000 nM for the second.

With `CNc1nc(N2CC3(CCOCC3)c3ccc(C#CC4(O)CCCC4)cc32)c2nc[nH]c2n1` [Example 207, 1-((1-(2-(Methylamino)-9H-purin-6-yl)-1,2,2′,3′,5′,6′-hexahydrospiro[indole-3,4′-pyran]-6-yl)ethynyl)cyclopentanol] the Ki was under 1000 nM.
